Test system: HBsAg
Assay: HepG2.2.15 cells primary screen assay: HBsAg assay (CLIA of secreted HBsAg)
Assay type: cell-based, HBV
Conditions: Hepatitis B virus
Experimental: Example 23: HepG2.2.15 Cells Primary Screen Assay
HepG2.2.15 cells (Acs et al. Proc Natl Acad Sci USA, 84, (1987), 4641-4), a constitutively HBV-expressing cell line were cultured in DMEM+Glutamax-I medium (Invitrogen, Carlsbad, Calif., USA), supplemented with 10% fetal bovine serum (Invitrogen) and G418 (Invitrogen) at a final concentration of 200 mg/L and maintained in 5% CO2 at 37° C.
HepG2.2.15 cells were seeded in duplicate into white, 96-well plates at 1.5×10^4 cells/well. The cells were treated with a three-fold serial dilution series of the compounds in DMSO. The final DMSO concentration in all wells was 1% and DMSO was used as no drug control.
The HBsAg chemiluminescence immunoassay (CLIA) kit (Autobio Diagnostics Co., Zhengzhou, China, Catalog number: CL0310-2) was used to measure the levels of secreted HBV antigens semi-quantitatively. For the detection 50 μL/well culture supernatant was used and HBsAg was quantified using HBsAg chemiluminescence immunoassay (CLIA) kit (Autobio Diagnostics Co., Zhengzhou, China, Catalog number: CL0310-2), 50 μL of the supernatant was transferred to the CLIA assay plate and 50 μL of enzyme conjugate reagent was added into each well. The plates were sealed and gently agitated for 1 hour at room temperature. The supernatant-enzyme-mixture was discarded and wells were washed 6 times with 300 μL of PBS. The residual liquid was removed by plating the CLIA plate […] on absorbent tissue paper. 25 μL of substrates A and B were added to each well. Luminance was measured using a luminometer (Mithras LB 940 Multimode Microplate Reader) after 10 minutes incubation. Dose-response curves were generated and the IC50 value was extrapolated by using the E-WorkBook Suite (ID Business Solutions Ltd., Guildford, UK). The IC50 was defined as the compound concentration (or conditioned media log dilution) at which HBsAg secretion was reduced by 50% compared to the no drug control.
The compounds of the present invention were tested for their capacity to inhibit HBsAg as described herein.

SMILES | IC50
COC(=O)C1=C(CN(C)CCCCCCOc2cc3c(cc2OC)-c2cc(=O)c(C(=O)O)cn2C(C(C)(C)C)C3)NC(c2nccs2)=N[C@H]1c1ccc(F)cc1Cl (stereo partly drawn) [Example 9, 6-tert-butyl-9-[6-[[(4R)-4-(2-chloro-4-fluoro-phenyl)-5-methoxycarbonyl-2-thiazol-2-yl-1,4-dihydropyrimidin-6-yl]methyl-methyl-amino]hexoxy]-10-methoxy-2-oxo-6,7-dihydrobenzo[a]quinolizine-3-carboxylic Acid] | 113 nM
COC(=O)C1=C(CN2CCN(CCCOc3cc4c(cc3OC)-c3cc(=O)c(C(=O)O)cn3C(C(C)(C)C)C4)CC2)NC(c2nccs2)=N[C@H]1c1ccc(F)cc1Cl (stereo partly drawn) [Example 4, 6-tert-butyl-9-[3-[4-[[(4R)-4-(2-chloro-4-fluoro-phenyl)-5-methoxycarbonyl-2-thiazol-2-yl-1,4-dihydropyrimidin-6-yl]methyl]piperazin-1-yl]propoxy]-10-methoxy-2-oxo-6,7-dihydrobenzo[a]quinolizine-3-carboxylic Acid] | 182 nM
COC(=O)C1=C(CN2CCN(CCCCCCOc3cc4c(cc3OC)-c3cc(=O)c(C(=O)O)cn3C(C(C)(C)C)C4)CC2C(=O)O)NC(c2nccs2)=N[C@H]1c1ccc(F)cc1Cl (stereo partly drawn) [Example 6, 6-tert-butyl-9-[6-[3-carboxy-4-[[(4R)-4-(2-chloro-4-fluoro-phenyl)-5-methoxycarbonyl-2-thiazol-2-yl-1,4-dihydropyrimidin-6-yl]methyl]piperazin-1-yl]hexoxy]-10-methoxy-2-oxo-6,7-dihydrobenzo[a]quinolizine-3-carboxylic Acid] | 262 nM
COC(=O)C1=C(COc2cc(N3CCc4nc(-c5ncccn5)ncc4C3C)cc(F)c2F)NC(c2nccs2)=N[C@H]1c1ccc(F)cc1Cl (stereo partly drawn) [Example 20, methyl (4R)-4-(2-chloro-4-fluoro-phenyl)-6-[[2,3-difluoro-5-(5-methyl-2-pyrimidin-2-yl-7,8-dihydro-5H-pyrido[4,3-d]pyrimidin-6-yl)phenoxy]methyl]-2-thiazol-2-yl-1,4-dihydropyrimidine-5-carboxylate] | 824 nM
COC(=O)C1=C(CN2CCN3C(=O)N(CCCCCCOc4cc5c(cc4OC)-c4cc(=O)c(C(=O)O)cn4C(C(C)(C)C)C5)CC3C2)NC(c2nccs2)=N[C@H]1c1ccc(F)cc1Cl (stereo partly drawn) [Example 8, 6-tert-butyl-9-[6-[7-[[(4R)-4-(2-chloro-4-fluoro-phenyl)-5-methoxycarbonyl-2-thiazol-2-yl-1,4-dihydropyrimidin-6-yl]methyl]-3-oxo-5,6,8,8a-tetrahydro-1H-imidazo[1,5-a]pyrazin-2-yl]hexoxy]-10-methoxy-2-oxo-6,7-dihydrobenzo[a]quinolizine-3-carboxylic Acid] | 48 nM
CCOC(=O)C1=C(CN2CCN3C(=O)N(CC(C)(C)C(=O)NCCCCCCOc4cc5c(cc4OC)-c4cc(=O)c(C(=O)O)cn4C(C(C)(C)C)C5)C[C@@H]3C2)NC(c2nccs2)=N[C@H]1c1cccc(F)c1Cl (stereo partly drawn) [Example 15, 9-[6-[[3-[(8aS)-7-[[(4R)-4-(2-chloro-3-fluoro-phenyl)-5-ethoxycarbonyl-2-thiazol-2-yl-1,4-dihydropyrimidin-6-yl]methyl]-3-oxo-5,6,8,8a-tetrahydro-1H-imidazo[1,5-a]pyrazin-2-yl]-2,2-dimethyl-propanoyl]amino]hexoxy]-6-tert-butyl-10-methoxy-2-oxo-6,7-dihydrobenzo[a]quinolizine-3-carboxylic Acid] | 41 nM
COC(=O)C1=C(CN2CCN(CCCCOc3cc4c(cc3OC)-c3cc(=O)c(C(=O)O)cn3C(C(C)(C)C)C4)CC2)NC(c2nccs2)=N[C@H]1c1ccc(F)cc1Cl (stereo partly drawn) [Example 3, 6-tert-butyl-9-[4-[4-[[(4R)-4-(2-chloro-4-fluoro-phenyl)-5-methoxycarbonyl-2-thiazol-2-yl-1,4-dihydropyrimidin-6-yl]methyl]piperazin-1-yl]butoxy]-10-methoxy-2-oxo-6,7-dihydrobenzo[a]quinolizine-3-carboxylic Acid] | 45 nM
